Laboratory results reported in article PMC11873900, “Insights into the Activation Mechanism of HCA1, HCA2, and HCA3” (Journal of Medicinal Chemistry, 2025).
Like-named read-outs stand apart in the source and are kept apart here. Each block holds one compound with its values, some of them ahead of it.

How the values were obtained:
HCA1 [1] = details: cited from earlier work
HCA1 [2] = target: T1, HCA1 (Homo sapiens, UniProt Q9BXC0); experiment: cAMP inhibition (CRE-luc reporter) assay, HCA1 wild type; assay type: cell-based; details: HEK293 cells, mean ± SEM (Table S2a,b)
T1 construct: expressed in transfected cells; host or cells: HEK293
Experimental: (§1) Human embryonic kidney 293 (HEK293) cells were maintained in Dulbecco’s modified Eagle’s medium (DMEM) containing 10% fetal bovine serum (FBS) and antibiotics (100 U/mL penicillin and 100 μg/mL streptomycin) at 37 °C, 5% CO2. Cells (1 × 10^6 per well) were seeded on 6-well plates for 15 h and transiently transfected with a transfection cocktail containing 2 μg of plasmid DNA (1 μg of the target plasmid and 1 μg of pCRE-luc) and 6 μL of X-tremeGENE HP DNA transfection reagents dissolved in 200 μL of phenol red-free OPTI MEM. After 24 h incubation, the medium containing the transfection cocktail was replaced with a serum-supplemented normal culture medium, and cells were plated at a density of approximately 40000 cells/well in white opaque 96-well microplates for an additional 24 h. After 24 h, fresh medium with varied concentrations of ligands was added to the wells, and cells were incubated for 30 min at 37 °C, 5% CO2. Then, forsklin with a final concentration of 5 μM was added to each well for 6 h. Then, all of the medium was removed and 40 μL of Bright-Glo Luciferase Assay System reagent (Promega, U.K.) was added to each well. Luminance was measured in a luminometer (TECAN Spark, CH) after 10 min incubation.

HCA1 R240^6.55A = target: T2, HCA1 R240^6.55A (Homo sapiens, UniProt Q9BXC0, R240A); experiment: cAMP reporter assay, HCA1 mutant R240A; assay type: cell-based; details: HCA1 R240A versus wild type (Figure 2f)
T2 construct: expressed in transfected cells; host or cells: HEK293
Experimental: as §1

HCA1 E166^45.51I = target: T3, HCA1 E166^45.51I (Homo sapiens, UniProt Q9BXC0, E166I); experiment: cAMP reporter assay, HCA1 mutant E166I; assay type: cell-based; details: HCA1 E166I (Figure 2f)
T3 construct: expressed in transfected cells; host or cells: HEK293
Experimental: as §1

HCA1 E166^45.51A = target: T4, HCA1 E166^45.51A (Homo sapiens, UniProt Q9BXC0, E166A); experiment: cAMP reporter assay, HCA1 mutant E166A; assay type: cell-based; details: HCA1 E166A (Figure 2f)
T4 construct: expressed in transfected cells; host or cells: HEK293
Experimental: as §1

HCA1 H261^7.36F = target: T5, HCA1 H261^7.36F (Homo sapiens, UniProt Q9BXC0, H261F); experiment: cAMP reporter assay, HCA1 mutant H261F; assay type: cell-based; details: HCA1 H261F (Figure 2f)
T5 construct: expressed in transfected cells; host or cells: HEK293
Experimental: as §1

HCA1 R99A = target: T6, HCA1 R99A (Homo sapiens, UniProt Q9BXC0, R99A); experiment: cAMP reporter assay, HCA1 mutant R99A; assay type: cell-based; details: HCA1 R99A (Figure 2f)
T6 construct: expressed in transfected cells; host or cells: HEK293
Experimental: as §1

HCA2(1–129)/HCA3(130-) = target: T7, HCA2(1–129)/HCA3(130-) (Homo sapiens, UniProt Q8TDS4, G173T/I156V/L176V/M167L/M317I/M346I/P168L/Q187R/R142W/R253H/S178I); experiment: IP1 accumulation assay, chimera HCA2(1–129)/HCA3(130-); assay type: cell-based; details: IP1 accumulation (Figure 3d)
T7 construct: swap the amino acid segments 1–129 between HCA2 and HCA3; creating chimeras HCA2(1–129)/HCA3(130-) and HCA3(1–129)/HCA2(130-); expressed in transfected cells; host or cells: HEK293
Experimental: The HCA1/HCA2/HCA3 plasmid was transfected into the HEK293 cells (Invitrogen) and cultured for 2 days. The HEK293 cells expressing HCA1/HCA2/HCA3 were washed by PBS and resuspended by the stimulation buffer from a Cisbio Bioassays’ IP-One Gq kit. […] After incubation at 37 °C for 90 min, 3μl Tb Cryptate Antibody and 3μl IP1 d2 Reagent were added to 384-well plates per well. […] The data was analyzed by GraphPad Prism 8.4.0 (GraphPad Software).

HCA3(1–129)/HCA2(130-) = target: T8, HCA3(1–129)/HCA2(130-) (Homo sapiens, UniProt P49019, H253R/I178S/I317M/I346M/L167M/L168P/R187Q/T173G/V156I/V176L/W142R); experiment: IP1 accumulation assay, chimera HCA3(1–129)/HCA2(130-); assay type: cell-based; details: IP1 accumulation (Figure 3d)
T8 construct: swap the amino acid segments 1–129 between HCA2 and HCA3; creating chimeras HCA2(1–129)/HCA3(130-) and HCA3(1–129)/HCA2(130-); expressed in transfected cells; host or cells: HEK293

[3] = target: T9, HCA3(1–129)/HCA2(130-) S178^45.51I (Homo sapiens, UniProt Q8TDS4, L107F/L83V/M103V/N86Y/S178I/V27A/W91S); experiment: IP1 accumulation assay, chimera HCA3(1–129)/HCA2(130-) with S178I; assay type: cell-based; details: HCA3(1–129)/HCA2(130-) with mutation S178I (Figure 3d)
T9 construct: swap the amino acid segments 1–129 between HCA2 and HCA3; creating chimeras HCA2(1–129)/HCA3(130-) and HCA3(1–129)/HCA2(130-); expressed in transfected cells; host or cells: HEK293

[4] = target: T10, HCA2(1–129)/HCA3(130-) N86^2.63Y W91^ECL1S (Homo sapiens, UniProt Q8TDS4, G173T/I156V/L176V/M167L/M317I/M346I/N86Y/P168L/Q187R/R142W/R253H/S178I/W91S); experiment: IP1 accumulation assay, chimera HCA2(1–129)/HCA3(130-) with N86Y and W91S; assay type: cell-based; details: HCA2(1–129)/HCA3(130-) with N86Y and W91S (Figure 3d)
T10 construct: swap the amino acid segments 1–129 between HCA2 and HCA3; creating chimeras HCA2(1–129)/HCA3(130-) and HCA3(1–129)/HCA2(130-); expressed in transfected cells; host or cells: HEK293
T10 sequence (Q8TDS4 with tags, fused parts or gaps with the stated changes): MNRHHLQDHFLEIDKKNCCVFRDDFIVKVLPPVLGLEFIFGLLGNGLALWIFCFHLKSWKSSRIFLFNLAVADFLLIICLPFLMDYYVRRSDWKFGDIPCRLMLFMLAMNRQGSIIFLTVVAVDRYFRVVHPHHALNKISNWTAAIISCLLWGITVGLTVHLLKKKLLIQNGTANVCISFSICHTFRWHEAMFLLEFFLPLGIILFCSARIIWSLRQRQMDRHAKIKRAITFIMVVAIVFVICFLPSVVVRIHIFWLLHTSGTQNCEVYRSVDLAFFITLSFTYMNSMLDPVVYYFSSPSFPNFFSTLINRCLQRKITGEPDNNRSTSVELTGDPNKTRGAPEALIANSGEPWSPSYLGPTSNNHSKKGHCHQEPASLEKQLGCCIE

T1 sequence (Q9BXC0 whole entry): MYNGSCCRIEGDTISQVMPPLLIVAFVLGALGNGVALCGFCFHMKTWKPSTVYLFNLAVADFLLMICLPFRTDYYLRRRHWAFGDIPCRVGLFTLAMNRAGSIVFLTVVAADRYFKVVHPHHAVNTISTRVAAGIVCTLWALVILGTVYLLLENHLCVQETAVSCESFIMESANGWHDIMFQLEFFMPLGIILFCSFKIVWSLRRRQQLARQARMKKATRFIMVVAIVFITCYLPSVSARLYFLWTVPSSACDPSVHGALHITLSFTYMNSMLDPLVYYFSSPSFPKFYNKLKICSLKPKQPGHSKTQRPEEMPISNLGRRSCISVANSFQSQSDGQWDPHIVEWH
T6 sequence (Q9BXC0 whole entry R99A): as the sequence (Q9BXC0 whole entry) above, with R99A counted along it
T7 sequence (Q8TDS4 with tags, fused parts or gaps with the stated changes): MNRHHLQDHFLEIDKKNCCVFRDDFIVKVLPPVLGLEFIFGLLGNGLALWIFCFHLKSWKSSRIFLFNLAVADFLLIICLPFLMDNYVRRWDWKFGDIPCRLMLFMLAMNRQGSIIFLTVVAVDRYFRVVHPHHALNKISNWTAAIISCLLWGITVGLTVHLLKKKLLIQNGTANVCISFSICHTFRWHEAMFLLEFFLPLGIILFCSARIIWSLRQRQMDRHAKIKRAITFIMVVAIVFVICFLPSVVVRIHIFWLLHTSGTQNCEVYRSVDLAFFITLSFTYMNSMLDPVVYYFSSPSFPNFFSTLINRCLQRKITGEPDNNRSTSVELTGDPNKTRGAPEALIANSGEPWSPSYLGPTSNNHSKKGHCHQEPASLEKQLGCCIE
T9 sequence (Q8TDS4 whole entry V27A/L83V/N86Y/W91S/M103V/L107F/S178I): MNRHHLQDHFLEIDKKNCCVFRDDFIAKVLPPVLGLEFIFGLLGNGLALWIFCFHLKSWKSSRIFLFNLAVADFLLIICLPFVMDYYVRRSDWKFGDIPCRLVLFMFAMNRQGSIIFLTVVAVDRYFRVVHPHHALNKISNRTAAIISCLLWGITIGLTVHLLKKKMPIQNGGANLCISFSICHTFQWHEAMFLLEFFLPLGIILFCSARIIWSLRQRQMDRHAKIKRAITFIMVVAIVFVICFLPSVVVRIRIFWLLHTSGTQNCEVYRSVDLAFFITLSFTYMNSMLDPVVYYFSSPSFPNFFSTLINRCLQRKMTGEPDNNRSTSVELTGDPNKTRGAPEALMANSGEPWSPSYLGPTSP
T2 sequence (Q9BXC0 whole entry R240A): as the sequence (Q9BXC0 whole entry) above, with R240A counted along it
T8 sequence (P49019 with tags, fused parts or gaps with the stated changes): as the sequence (Q8TDS4 whole entry V27A/L83V/N86Y/W91S/M103V/L107F/S178I) above, with I178S counted along it
T5 sequence (Q9BXC0 whole entry H261F): as the sequence (Q9BXC0 whole entry) above, with H261F counted along it
T3 sequence (Q9BXC0 whole entry E166I): as the sequence (Q9BXC0 whole entry) above, with E166I counted along it
T4 sequence (Q9BXC0 whole entry E166A): as the sequence (Q9BXC0 whole entry) above, with E166A counted along it

Compound: 3-hydroxybutyric acid [3-HBA]
EC50 (HCA1 [1]; HCA1): ~184 µM

Compound: CCOc1cc(Cl)c(C(=O)NC(=O)Nc2nc3ccc(CN4CCN(C)CC4)cc3s2)cc1N1CCOCC1 [AZ2, 2-chloro-4-ethoxy-N-[[6-[(4-methylpiperazin-1-yl)methyl]-1,3-benzothiazol-2-yl]carbamoyl]-5-morpholino-benzamide]
EC50 (HCA1 [1]; HCA1): 0.07 to 0.18 µM

Now from value to compound, other results behind:

pEC50 (HCA1 [2]): 3.7 ± 0.1
reduction of activation efficacy (HCA1 R240^6.55A): around 50%
activation efficacy compared with the wild type (HCA1 E166^45.51I): halving of the activation efficacy
receptor activation (HCA1 E166^45.51A): inactivity
efficacy compared with H261A (HCA1 H261^7.36F): marked decrease of efficacy
potency at mutant (HCA1 R99A): complete loss of potency
Compound: O=C(O)c1cc(O)cc(O)c1 [3,5-DHBA, 3,5-dihydroxybenzoic acid]

activation of chimera (HCA2(1–129)/HCA3(130-)): failed to activate
activation of chimera (HCA3(1–129)/HCA2(130-)): capable of activating
activation of chimera [3]: highest potency
activation of chimera [4]: did not facilitate activation
Compound: CCCCCC(O)CC(=O)O (stereo not drawn) [3-HO, 3-hydroxy-octanoic acid]

pEC50 (HCA1 [2]): 3.2 ± 0.3
potency at mutant (HCA1 R99A): complete loss of potency
Compound: CC(O)C(=O)O (stereo not drawn) [lactate]
EC50 (HCA1 [1]; HCA1, endogenous agonist): 1000 to 5000 µM
